Values after ≈ are worked out from the molar mass of the structure shown. Non-standard residues stand in square brackets, D forms with d. Residues, ends and D or L forms follow the SMILES beside them. No end group written: not given here. *: point of attachment. Myristoyl = CCCCCCCCCCCCCC(=O)*; Lauroyl = CCCCCCCCCCCC(=O)*; Decanoyl = CCCCCCCCCC(=O)*; Octanoyl = CCCCCCCC(=O)*; Hexanoyl = CCCCCC(=O)*
Key:
[1] = tested on: Klebsiella pneumonia ATCC 13883; type: cell-based, Klebsiella pneumoniae
P. aeruginosa PAO1 = type: cell-based, Pseudomonas aeruginosa

CCCCCC(=O)N[C@@H](CCCCN)C(=O)N[C@@H](CCCNC(=N)N)C(=O)N[C@H](C(=O)N[C@@H](Cc1c[nH]c2ccccc12)C(N)=O)[C@@H](C)CC [Peptide C6-KR4] (Hexanoyl-KRIW-NH2; C-terminus assumed)
MIC KP [1]: >50 µM

CCCCCC(=O)N[C@@H](CCCCN)C(=O)N[C@@H](CCCNC(=N)N)C(=O)N[C@H](C(=O)N[C@@H](Cc1c[nH]c2ccccc12)C(=O)N[C@@H](CCC(N)=O)C(=O)N[C@@H](CCCNC(=N)N)C(N)=O)[C@@H](C)CC [Peptide C6-KR6] (Hexanoyl-KRIWQR-NH2; C-terminus assumed)
MIC KP [1]: >50 µM

CCCCCC(=O)N[C@@H](CCCCN)C(=O)N[C@@H](CCCNC(=N)N)C(=O)N[C@H](C(=O)N[C@@H](Cc1c[nH]c2ccccc12)C(=O)N[C@@H](CCC(N)=O)C(=O)N[C@@H](CCCNC(=N)N)C(=O)N[C@H](C(=O)N[C@@H](CCCCN)C(N)=O)[C@@H](C)CC)[C@@H](C)CC [Peptide C6-KR8] (Hexanoyl-KRIWQRIK-NH2)
MIC KP [1]: >50 µM

CCCCCC(=O)N[C@@H](CCCCN)C(=O)N[C@@H](CCCNC(=N)N)C(=O)N[C@H](C(=O)N[C@@H](Cc1c[nH]c2ccccc12)C(=O)N[C@@H](CCC(N)=O)C(=O)N[C@@H](CCCNC(=N)N)C(=O)N[C@H](C(=O)N[C@@H](CCCCN)C(=O)N[C@@H](CC(=O)O)C(=O)N[C@@H](Cc1ccccc1)C(N)=O)[C@@H](C)CC)[C@@H](C)CC [Peptide C6-KR10] (Hexanoyl-KRIWQRIKDF-NH2)
MIC KP [1]: >50 µM

CCCCCC(=O)N[C@@H](CCCCN)C(=O)N[C@@H](CCCNC(=N)N)C(=O)N[C@H](C(=O)N[C@@H](Cc1c[nH]c2ccccc12)C(=O)N[C@@H](CCC(N)=O)C(=O)N[C@@H](CCCNC(=N)N)C(=O)N[C@H](C(=O)N[C@@H](CCCCN)C(=O)N[C@@H](CC(=O)O)C(=O)N[C@@H](Cc1ccccc1)C(=O)N[C@@H](CC(C)C)C(=O)N[C@@H](CCCNC(=N)N)C(N)=O)[C@@H](C)CC)[C@@H](C)CC [Peptide C6-KR12] (Hexanoyl-KRIWQRIKDFLR-NH2)
MIC KP [1]: 6.2 µM (≈ 10.9 µg/mL)

CCCCCCCC(=O)N[C@@H](CCCCN)C(=O)N[C@@H](CCCNC(=N)N)C(=O)N[C@H](C(=O)N[C@@H](Cc1c[nH]c2ccccc12)C(N)=O)[C@@H](C)CC [Peptide C8-KR4] (Octanoyl-KRIW-NH2; C-terminus assumed)
MIC KP [1]: >50 µM

CCCCCCCC(=O)N[C@@H](CCCCN)C(=O)N[C@@H](CCCNC(=N)N)C(=O)N[C@H](C(=O)N[C@@H](Cc1c[nH]c2ccccc12)C(=O)N[C@@H](CCC(N)=O)C(=O)N[C@@H](CCCNC(=N)N)C(N)=O)[C@@H](C)CC [Peptide C8-KR6] (Octanoyl-KRIWQR-NH2; C-terminus assumed)
MIC KP [1]: >50 µM

CCCCCCCC(=O)N[C@@H](CCCCN)C(=O)N[C@@H](CCCNC(=N)N)C(=O)N[C@H](C(=O)N[C@@H](Cc1c[nH]c2ccccc12)C(=O)N[C@@H](CCC(N)=O)C(=O)N[C@@H](CCCNC(=N)N)C(=O)N[C@H](C(=O)N[C@@H](CCCCN)C(N)=O)[C@@H](C)CC)[C@@H](C)CC [Peptide C8-KR8] (Octanoyl-KRIWQRIK-NH2)
MIC KP [1]: >50 µM

CCCCCCCC(=O)N[C@H](CCCCN)C(=O)N[C@H](CCCNC(=N)N)C(=O)N[C@@H](C(=O)N[C@H](Cc1c[nH]c2ccccc12)C(=O)N[C@H](CCC(N)=O)C(=O)N[C@H](CCCNC(=N)N)C(=O)N[C@@H](C(=O)N[C@H](CCCCN)C(=O)N[C@H](CC(=O)O)C(=O)N[C@H](Cc1ccccc1)C(N)=O)[C@H](C)CC)[C@H](C)CC [Peptide C8-KR10d] (Octanoyl-[dK][dR][dI][dW][dQ][dR][dI][dK][dD][dF]-NH2; C-terminus assumed)
MIC SA (S. aureus USA300 LAC; USA300): 3.1 µM (≈ 4.7 µg/mL) | Minimal inhibitory concentration (MIC) (S. aureus USA300 LAC; USA300, pH 7.4): 3.1 µM (≈ 4.7 µg/mL) | MIC EC (E. coli ATCC25922): 6.2 µM (≈ 9.39 µg/mL) | MIC KP [1]: 12.5 µM (≈ 18.9 µg/mL) | MIC PA (P. aeruginosa PAO1): 12.5 µM (≈ 18.9 µg/mL)

CCCCCCCC(=O)N[C@@H](CCCCN)C(=O)N[C@@H](CCCNC(=N)N)C(=O)N[C@H](C(=O)N[C@@H](Cc1c[nH]c2ccccc12)C(=O)N[C@@H](CCC(N)=O)C(=O)N[C@@H](CCCNC(=N)N)C(=O)N[C@H](C(=O)N[C@@H](CCCCN)C(=O)N[C@@H](CC(=O)O)C(=O)N[C@@H](Cc1ccccc1)C(=O)N[C@@H](CC(C)C)C(=O)N[C@@H](CCCNC(=N)N)C(N)=O)[C@@H](C)CC)[C@@H](C)CC [Peptide C8-KR12] (Octanoyl-KRIWQRIKDFLR-NH2)
MIC KP [1]: <6.2 µM

CCCCCCCCCC(=O)N[C@@H](CCCCN)C(=O)N[C@@H](CCCNC(=N)N)C(=O)N[C@H](C(=O)N[C@@H](Cc1c[nH]c2ccccc12)C(N)=O)[C@@H](C)CC [Peptide C10-KR4] (Decanoyl-KRIW-NH2; C-terminus assumed)
MIC KP [1]: >50 µM

CCCCCCCCCC(=O)N[C@@H](CCCCN)C(=O)N[C@@H](CCCNC(=N)N)C(=O)N[C@H](C(=O)N[C@@H](Cc1c[nH]c2ccccc12)C(=O)N[C@@H](CCC(N)=O)C(=O)N[C@@H](CCCNC(=N)N)C(N)=O)[C@@H](C)CC [Peptide C10-KR6] (Decanoyl-KRIWQR-NH2; C-terminus assumed)
MIC KP [1]: >50 µM

CCCCCCCCCC(=O)N[C@@H](CCCCN)C(=O)N[C@@H](CCCNC(=N)N)C(=O)N[C@H](C(=O)N[C@@H](Cc1c[nH]c2ccccc12)C(=O)N[C@@H](CCC(N)=O)C(=O)N[C@@H](CCCNC(=N)N)C(=O)N[C@H](C(=O)N[C@@H](CCCCN)C(=O)N[C@@H](CC(=O)O)C(=O)N[C@@H](Cc1ccccc1)C(N)=O)[C@@H](C)CC)[C@@H](C)CC [Peptide C10-KR10] (Decanoyl-KRIWQRIKDF-NH2)
MIC KP [1]: 6.2 µM (≈ 9.57 µg/mL) | MIC PA (P. aeruginosa PAO1): 6.2 µM (≈ 9.57 µg/mL)

CCCCCCCCCC(=O)N[C@@H](CCCCN)C(=O)N[C@@H](CCCNC(=N)N)C(=O)N[C@H](C(=O)N[C@@H](Cc1c[nH]c2ccccc12)C(=O)N[C@@H](CCC(N)=O)C(=O)N[C@@H](CCCNC(=N)N)C(=O)N[C@H](C(=O)N[C@@H](CCCCN)C(=O)N[C@@H](CC(=O)O)C(=O)N[C@@H](Cc1ccccc1)C(=O)N[C@@H](CC(C)C)C(=O)N[C@@H](CCCNC(=N)N)C(N)=O)[C@@H](C)CC)[C@@H](C)CC [Peptide C10-KR12] (Decanoyl-KRIWQRIKDFLR-NH2)
MIC KP [1]: 6.2 to 12.5 µM

CCCCCCCCCCCC(=O)N[C@@H](CCCCN)C(=O)N[C@@H](CCCNC(=N)N)C(=O)N[C@H](C(=O)N[C@@H](Cc1c[nH]c2ccccc12)C(N)=O)[C@@H](C)CC [Peptide C12-KR4] (Lauroyl-KRIW-NH2; C-terminus assumed)
MIC KP [1]: >50 µM

CCCCCCCCCCCC(=O)N[C@@H](CCCCN)C(=O)N[C@@H](CCCNC(=N)N)C(=O)N[C@H](C(=O)N[C@@H](Cc1c[nH]c2ccccc12)C(=O)N[C@@H](CCC(N)=O)C(=O)N[C@@H](CCCNC(=N)N)C(N)=O)[C@@H](C)CC [Peptide C12-KR6] (Lauroyl-KRIWQR-NH2; C-terminus assumed)
MIC KP [1]: >50 µM

CCCCCCCCCCCC(=O)N[C@@H](CCCCN)C(=O)N[C@@H](CCCNC(=N)N)C(=O)N[C@H](C(=O)N[C@@H](Cc1c[nH]c2ccccc12)C(=O)N[C@@H](CCC(N)=O)C(=O)N[C@@H](CCCNC(=N)N)C(=O)N[C@H](C(=O)N[C@@H](CCCCN)C(N)=O)[C@@H](C)CC)[C@@H](C)CC [Peptide C12-KR8] (Lauroyl-KRIWQRIK-NH2)
MIC KP [1]: >50 µM

CCCCCCCCCCCC(=O)N[C@@H](CCCCN)C(=O)N[C@@H](CCCNC(=N)N)C(=O)N[C@H](C(=O)N[C@@H](Cc1c[nH]c2ccccc12)C(=O)N[C@@H](CCC(N)=O)C(=O)N[C@@H](CCCNC(=N)N)C(=O)N[C@H](C(=O)N[C@@H](CCCCN)C(=O)N[C@@H](CC(=O)O)C(=O)N[C@@H](Cc1ccccc1)C(N)=O)[C@@H](C)CC)[C@@H](C)CC [Peptide C12-KR10] (Lauroyl-KRIWQRIKDF-NH2)
MIC KP [1]: 3.1 µM (≈ 4.87 µg/mL) | MIC PA (P. aeruginosa PAO1): 3.1 µM (≈ 4.87 µg/mL)

CCCCCCCCCCCC(=O)N[C@@H](CCCCN)C(=O)N[C@@H](CCCNC(=N)N)C(=O)N[C@H](C(=O)N[C@@H](Cc1c[nH]c2ccccc12)C(=O)N[C@@H](CCC(N)=O)C(=O)N[C@@H](CCCNC(=N)N)C(=O)N[C@H](C(=O)N[C@@H](CCCCN)C(=O)N[C@@H](CC(=O)O)C(=O)N[C@@H](Cc1ccccc1)C(=O)N[C@@H](CC(C)C)C(=O)N[C@@H](CCCNC(=N)N)C(N)=O)[C@@H](C)CC)[C@@H](C)CC [Peptide C12-KR12] (Lauroyl-KRIWQRIKDFLR-NH2)
MIC KP [1]: 12.5 µM (≈ 23 µg/mL)

CCCCCCCCCCCCCC(=O)N[C@@H](CCCCN)C(=O)N[C@@H](CCCNC(=N)N)C(=O)N[C@H](C(=O)N[C@@H](Cc1c[nH]c2ccccc12)C(N)=O)[C@@H](C)CC [Peptide C14-KR4] (Myristoyl-KRIW-NH2; C-terminus assumed)
MIC KP [1]: 12.5 µM (≈ 10.1 µg/mL)

CCCCCCCCCCCCCC(=O)N[C@@H](CCCCN)C(=O)N[C@@H](CCCNC(=N)N)C(=O)N[C@H](C(=O)N[C@@H](Cc1c[nH]c2ccccc12)C(=O)N[C@@H](CCC(N)=O)C(=O)N[C@@H](CCCNC(=N)N)C(N)=O)[C@@H](C)CC [Peptide C14-KR6] (Myristoyl-KRIWQR-NH2; C-terminus assumed)
MIC KP [1]: >50 µM

CCCCCCCCCCCCCC(=O)N[C@@H](CCCCN)C(=O)N[C@@H](CCCNC(=N)N)C(=O)N[C@H](C(=O)N[C@@H](Cc1c[nH]c2ccccc12)C(=O)N[C@@H](CCC(N)=O)C(=O)N[C@@H](CCCNC(=N)N)C(=O)N[C@H](C(=O)N[C@@H](CCCCN)C(N)=O)[C@@H](C)CC)[C@@H](C)CC [Peptide C14-KR8] (Myristoyl-KRIWQRIK-NH2)
MIC KP [1]: >50 µM

CCCCCCCCCCCCCC(=O)N[C@@H](CCCCN)C(=O)N[C@@H](CCCNC(=N)N)C(=O)N[C@H](C(=O)N[C@@H](Cc1c[nH]c2ccccc12)C(=O)N[C@@H](CCC(N)=O)C(=O)N[C@@H](CCCNC(=N)N)C(=O)N[C@H](C(=O)N[C@@H](CCCCN)C(=O)N[C@@H](CC(=O)O)C(=O)N[C@@H](Cc1ccccc1)C(N)=O)[C@@H](C)CC)[C@@H](C)CC [Peptide C14-KR10] (Myristoyl-KRIWQRIKDF-NH2)
MIC KP [1]: 6.2 µM (≈ 9.91 µg/mL)

KRIVQRIKDFLR-NH2 [KR12, reference compound]
MIC EC (E. coli ATCC25922): >50 µM | MIC KP [1]: >50 µM
